The results in this text go back to ChEMBL document CHEMBL5537164, “Discovery of Potent, Orally Bioavailable, Tricyclic NLRP3 Inhibitors” (J Med Chem, 2024).

The Papp A→B is the apparent permeability from the apical to the basolateral side of a cell layer. A word on the IC50: it is the midpoint of a concentration-inhibition curve. By solubility is commonly meant the dissolved amount per volume that the medium holds. A higher solubility goes with much dissolved substance. By logD is commonly meant lipophilicity at a set pH, counting ionised and neutral species. Read a low logD as lower lipophilicity. By clearance is commonly meant the volume of plasma or blood freed of the substance per unit of time. Read a low clearance as a low capacity for elimination. As usually defined, the AUC(0-inf) is total exposure, with the tail of the curve extrapolated. Low values mean low exposure, high ones high exposure. In general, bioavailability refers to the share of a dose that reaches the circulation, judged against a reference dose that is usually intravenous. A lower bioavailability goes with little systemic uptake. The inhibition in vivo is the drop in the measured response relative to a control, in per cent.

Values after ≈ are worked out from the molar mass of the structure shown. A value given as a limit tells only on which side of the number the result lay.

The nature of series [1]: Metabolic stability in human liver microsomes assessed as intrinsic clearance. The class given is ADME, Microsome. Particulars: read-out: CLH.
Series [2] in a line: Apparent permeability from apical to basolateral side in MDCK cells by high-throughput assay. Format: ADME, cell-based, Canis lupus familiaris. As to conditions: dog.
The target of series [3] is Nuclear factor NF-kappa-B complex (Homo sapiens, UniProt P19838+Q00653+Q04206). Description: Inhibition of NF-kappaB in PMA-differentiated human THP-1 cells assessed as reduction in TNF-alpha release preincubated with compound for 1 hrs followed by Pam3CSK4 stimulation and measured after 3 hrs by HTRF assay. Format: cell-based. In general terms: Time-resolved FRET reads energy transfer from a long-lived donor to a nearby acceptor.
Nuclear factor NF-kappa-B complex, sequence (P19838 1-433 limits assumed): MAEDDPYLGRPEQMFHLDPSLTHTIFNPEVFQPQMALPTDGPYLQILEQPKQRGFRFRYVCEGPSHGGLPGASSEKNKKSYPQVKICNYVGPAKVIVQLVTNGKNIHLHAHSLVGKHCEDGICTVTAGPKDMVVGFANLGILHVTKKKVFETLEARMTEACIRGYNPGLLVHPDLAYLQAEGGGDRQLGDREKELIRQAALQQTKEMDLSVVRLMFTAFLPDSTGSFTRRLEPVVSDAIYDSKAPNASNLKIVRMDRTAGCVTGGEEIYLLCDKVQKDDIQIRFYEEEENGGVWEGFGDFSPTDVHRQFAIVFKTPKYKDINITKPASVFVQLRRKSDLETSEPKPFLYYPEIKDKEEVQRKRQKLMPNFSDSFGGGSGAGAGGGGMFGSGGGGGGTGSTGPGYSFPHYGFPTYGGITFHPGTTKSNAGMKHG
Nuclear factor NF-kappa-B complex, sequence (Q00653 1-454 limits assumed): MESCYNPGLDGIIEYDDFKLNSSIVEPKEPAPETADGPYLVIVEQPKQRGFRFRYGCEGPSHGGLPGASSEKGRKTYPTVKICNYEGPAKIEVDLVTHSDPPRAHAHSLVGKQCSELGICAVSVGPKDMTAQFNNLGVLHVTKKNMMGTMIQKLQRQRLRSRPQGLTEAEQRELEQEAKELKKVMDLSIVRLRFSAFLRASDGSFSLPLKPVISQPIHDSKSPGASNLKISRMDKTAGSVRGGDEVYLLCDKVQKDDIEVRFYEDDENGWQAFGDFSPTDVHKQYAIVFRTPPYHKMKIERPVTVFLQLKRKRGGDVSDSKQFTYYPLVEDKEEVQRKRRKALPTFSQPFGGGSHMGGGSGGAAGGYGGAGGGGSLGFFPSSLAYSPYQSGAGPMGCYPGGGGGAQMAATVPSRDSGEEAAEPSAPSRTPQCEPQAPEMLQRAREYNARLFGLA
Nuclear factor NF-kappa-B complex, sequence (Q04206 whole entry): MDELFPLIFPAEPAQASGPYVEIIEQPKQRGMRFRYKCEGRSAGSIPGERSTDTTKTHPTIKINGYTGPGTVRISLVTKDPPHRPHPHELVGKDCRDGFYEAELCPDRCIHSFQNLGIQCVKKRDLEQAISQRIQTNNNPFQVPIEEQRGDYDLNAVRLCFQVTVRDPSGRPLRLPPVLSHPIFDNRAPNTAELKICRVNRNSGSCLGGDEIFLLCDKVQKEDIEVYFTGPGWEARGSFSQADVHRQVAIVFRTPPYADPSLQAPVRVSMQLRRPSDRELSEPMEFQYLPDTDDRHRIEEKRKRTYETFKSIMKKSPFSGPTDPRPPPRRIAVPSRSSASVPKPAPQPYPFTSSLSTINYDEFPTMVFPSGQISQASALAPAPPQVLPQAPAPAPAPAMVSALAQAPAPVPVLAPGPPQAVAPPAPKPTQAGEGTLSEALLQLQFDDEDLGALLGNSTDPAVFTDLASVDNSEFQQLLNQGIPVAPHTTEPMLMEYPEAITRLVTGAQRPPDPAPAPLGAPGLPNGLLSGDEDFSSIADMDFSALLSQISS

A short description of series [4]: Equilibrium solubility of compound in DMSO at pH 6.8 by shake flask method. The class given is physicochemical.
The nature of series [5]: Metabolic stability in mouse liver microsomes assessed as intrinsic clearance. The class given is ADME, Microsome. As to conditions: read-out: CLH. In general terms: Liver microsomes are a subcellular fraction often used to study metabolism.
The nature of series [6]: Lipophilicity, logD of compound at pH 7.4. Format: physicochemical. Particulars: buffer.
Series [7] can be described thus: Clearance in C57BL/6 mouse at 1 mg/kg, iv measured after 24 hrs by LC-MS/MS analysis. The class given is ADME, organism-based. As to conditions: in vivo.
A short description of series [8]: AUC (0 to infinity) in C57BL/6 mouse at 3 mg/kg, po measured after 24 hrs by LC-MS/MS analysis. As to conditions: in vivo. The class given is ADME, organism-based.
A short description of series [9]: Oral bioavailability in C57BL/6 mouse measured after 24 hrs by LC-MS/MS analysis. Format: ADME, organism-based. As to conditions: in vivo.
For series [10], the target named is Voltage-gated inwardly rectifying potassium channel KCNH2 (Homo sapiens, UniProt Q12809). Put plainly: Displacement of [3H]-dofetilide from human ERG. Format: toxicity.
Voltage-gated inwardly rectifying potassium channel KCNH2, sequence (Q12809 whole entry): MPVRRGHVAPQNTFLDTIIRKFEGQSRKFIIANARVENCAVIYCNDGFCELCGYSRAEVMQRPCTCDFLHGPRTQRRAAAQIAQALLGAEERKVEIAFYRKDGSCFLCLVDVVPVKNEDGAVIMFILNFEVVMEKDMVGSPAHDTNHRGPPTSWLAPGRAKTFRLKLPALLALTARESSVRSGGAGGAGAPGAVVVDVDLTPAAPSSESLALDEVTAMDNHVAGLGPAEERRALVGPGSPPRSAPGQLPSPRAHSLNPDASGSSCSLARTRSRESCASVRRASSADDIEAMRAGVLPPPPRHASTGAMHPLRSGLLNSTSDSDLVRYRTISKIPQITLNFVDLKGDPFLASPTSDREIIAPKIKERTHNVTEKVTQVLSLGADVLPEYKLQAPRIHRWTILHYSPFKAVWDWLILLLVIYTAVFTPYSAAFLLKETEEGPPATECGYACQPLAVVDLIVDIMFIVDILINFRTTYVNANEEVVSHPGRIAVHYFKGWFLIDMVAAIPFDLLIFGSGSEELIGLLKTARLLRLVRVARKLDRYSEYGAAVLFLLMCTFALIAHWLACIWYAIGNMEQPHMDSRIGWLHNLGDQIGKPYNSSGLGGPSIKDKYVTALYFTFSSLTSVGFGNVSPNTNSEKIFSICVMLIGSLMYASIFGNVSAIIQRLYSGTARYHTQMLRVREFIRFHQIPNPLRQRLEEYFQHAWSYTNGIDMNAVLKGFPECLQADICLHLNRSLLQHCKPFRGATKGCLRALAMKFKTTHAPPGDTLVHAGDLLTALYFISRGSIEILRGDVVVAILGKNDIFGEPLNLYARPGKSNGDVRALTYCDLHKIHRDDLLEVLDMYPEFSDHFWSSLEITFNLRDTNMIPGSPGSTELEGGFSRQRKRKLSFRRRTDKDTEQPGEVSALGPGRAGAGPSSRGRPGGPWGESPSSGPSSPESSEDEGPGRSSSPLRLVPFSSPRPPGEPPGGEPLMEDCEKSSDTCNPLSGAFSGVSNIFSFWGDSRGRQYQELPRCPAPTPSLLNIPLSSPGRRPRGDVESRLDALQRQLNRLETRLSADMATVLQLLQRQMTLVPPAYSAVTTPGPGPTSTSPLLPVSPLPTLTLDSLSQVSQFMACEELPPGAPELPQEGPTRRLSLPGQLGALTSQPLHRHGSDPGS
The subject of another series is Cytochrome P450. Description: Drug metabolism in human liver microsomes assessed as CYP450-driven thiophene oxidation mediated metabolite formation by LC-MS/MS analysis. The class given is ADME, Microsome.
Series [11] is described as follows: Drug concentration in blood of C57BL/6 mouse model of acute peritonitis at 50 mg/kg, po preadministered with compound for 1 hrs followed by LPS stimulation for 2 hrs and measured 15 mins after ATP addition by HPLC-MS/MS analysis. The class given is ADME, organism-based. Particulars: whole blood, read-out: Ct.
A short description of series [12]: In vivo inhibition of NLRP3 in LPS/ATP-induced C57BL/6 mouse model of acute peritonitis assessed as reduction in IL-1beta level at 50 mg/kg, po preadministered with compound for 1 hrs followed by LPS stimulation for 2 hrs and measured 15 mins after ATP addition by ELISA relative to control. As to conditions: time 3.25 hrs. Format: functional. A general note: In an ELISA, binding on a coated surface is turned into a signal by an enzyme label.

The nature of series [13]: Metabolic stability in rat liver microsomes assessed as intrinsic clearance. Format: ADME, Microsome. Particulars: read-out: CLH.

For the compound `CCc1nn(CC(=O)Nc2cccc(C(C)=O)c2)c(=O)c2cc3sccc3n12`, the microsomal CLint in [1] was 299 µL/min/mg. Besides, the apparent permeability from apical to basolateral (Papp A→B) in [2] came out at 41 ×10⁻⁶ cm/s. For the same compound, in [3], the IC50 was greater than 100 µM. In addition, the concentration in solution in series [4] (solubility) was 4 µM (≈ 1.58 µg/mL).
For `CCc1nn(CC(=O)N(C)c2ccccc2)c(=O)c2cc3sccc3n12`, in series [1], the microsomal CLint stood at 971 µL/min/mg. Besides, the Papp A→B in series [2] stood at 19 ×10⁻⁶ cm/s. In addition, in series [4], the concentration in solution (solubility) came to 6 µM (≈ 2.2 µg/mL).
For the compound `CC(C)c1nn(CC(=O)NC2CCOCC2)c(=O)c2cc3sc(Cl)cc3n12`, the figures for the microsomal CLint in series [1] and in [5] were 30 µL/min/mg and 129 µL/min/mg, respectively. For the same compound, in series [6], the logD is 3. This compound showed a solubility in series [4] of 3 µM (≈ 1.23 µg/mL).
Take `O=C(Cn1nc(C2CC2)n2c(cc3sccc32)c1=O)Nc1cccnc1`: the microsomal CLint in series [1] came to 76 µL/min/mg; in series [5] it was 464 µL/min/mg. In series [6], the logD is 2.7. This compound displayed a solubility in series [4] of 26 µM (≈ 9.5 µg/mL).
In the case of `CC(C)c1nn(CC(=O)Nc2cccnc2)c(=O)c2cc3sc(Cl)cc3n12`, the microsomal CLint in series [1] turned out to be 44 µL/min/mg; in [5], 124 µL/min/mg. In [7], this compound displayed a clearance of 16.5 mL/min/kg. This compound also displayed an AUC(0-inf) in series [8] of 3.75 µM·h. The compound also gave a logD in series [6] of 4. Moreover, the solubility in series [4] amounted to 10 µM (≈ 4.02 µg/mL). The compound further yielded a bioavailability in series [9] of 55%.
Regarding `CC(C)c1nn(CC(=O)Nc2cccnc2)c(=O)c2cc3sc(F)cc3n12`, the figures for the microsomal CLint in series [1] and in series [5] were 79 µL/min/mg and 227 µL/min/mg, respectively. For the same compound, the logD in series [6] is 3.4. Further, in series [4], the solubility amounted to 251 µM (≈ 96.7 µg/mL).
Regarding `CC(C)c1nn(CC(=O)N[C@@H]2CCCN(C)C2)c(=O)c2cc3sc(Cl)cc3n12`, the microsomal CLint in [1] is 59 µL/min/mg; in series [5], 364 µL/min/mg. The clearance in [7] turned out to be 58 mL/min/kg. Further, in [8], the AUC(0-inf) was found to be 0.163 µM·h. The pH-dependent lipophilicity (logD) in series [6] is 2.4. In series [2], the apical-to-basolateral permeability (Papp A→B) came out at 15 ×10⁻⁶ cm/s. In series [4], this compound returned a solubility greater than 1000 µM. Also, in series [10], the IC50 is greater than 30 µM. This compound came in with a bioavailability in [9] of 7.8%.
Regarding `CCc1nn(CC(=O)Nc2cccnc2)c(=O)c2cc3sccc3n12`, the results for the microsomal CLint in series [1] and in [5] were 63 µL/min/mg and 412 µL/min/mg, respectively. Also, in series [6], the logD is 2.6. In addition, the apical-to-basolateral permeability (Papp A→B) in series [2] came to 27 ×10⁻⁶ cm/s. The compound also registered a solubility in [4] of 21 µM (≈ 7.42 µg/mL).
As for `CC(C)c1nn(CC(=O)Nc2cccnc2)c(=O)c2cc3sccc3n12`, in the series with Cytochrome P450, the Drug metabolism entry is on record as “Metabolite_Detected”. Moreover, the results for the microsomal CLint in series [1] and in series [5] were 144 µL/min/mg and 490 µL/min/mg, respectively. Further, the logD in series [6] stood at 3.1. The compound also yielded a solubility in [4] of 19 µM (≈ 6.98 µg/mL).
For `CCCc1nn(CC(=O)Nc2cccnc2)c(=O)c2cc3sccc3n12`, the microsomal CLint is 101 µL/min/mg in [1] and greater than 1000 µL/min/mg in [5]. Moreover, in series [6], the pH-dependent lipophilicity (logD) came to 3. The same compound gave a solubility in series [4] of 3 µM (≈ 1.1 µg/mL).
For `CC(C)c1nn(CC(=O)N[C@@H]2CCCNC2)c(=O)c2cc3sc(Cl)cc3n12`, the microsomal CLint stood at 12 µL/min/mg in [1] and 55 µL/min/mg in series [5]. In [7], this compound came in with a clearance of 55.7 mL/min/kg. For the same compound, the AUC(0-inf) in series [8] was found to be 0.691 µM·h. This compound also registered a logD in series [6] of 1. Moreover, the Papp A→B in [2] came to 3 ×10⁻⁶ cm/s. In addition, in [4], the solubility is greater than 1000 µM. For the same compound, the IC50 in series [10] stood at 26 µM. The compound also showed a bioavailability in series [9] of 27.6%.
In the case of `CCc1nn(CC(=O)Nc2ccccc2)c(=O)c2cc3sccc3n12`, the microsomal CLint in series [1] is 269 µL/min/mg. Further, in [2], the Papp A→B was 25 ×10⁻⁶ cm/s. This compound also gave a solubility in series [4] of 2 µM (≈ 0.705 µg/mL).
On to `CC(C)(O)c1nn(CC(=O)Nc2cccnc2)c(=O)c2cc3sccc3n12`, for which the microsomal CLint in series [1] was determined as 68 µL/min/mg; in series [5], 300 µL/min/mg. Moreover, the logD in series [6] amounted to 2.8. Also, the concentration in solution in [4] (solubility) was 23 µM (≈ 8.82 µg/mL).
`CC(C)c1nn(CC(=O)N[C@@H]2CCCN(C)C2)c(=O)c2cc3scnc3n12`: in series [11], the concentration at 3.25 h was 113 nM. The results for the microsomal CLint in series [1] and in [5] were 27 µL/min/mg and 231 µL/min/mg, respectively. The compound further registered a logD in series [6] of 1.1. The inhibition in vivo at 50 mg/kg in [12] came out at 40%. For the same compound, in series [4], the solubility is greater than 1000 µM.
As to `CCc1nn(CC(=O)Nc2cccc(O)c2)c(=O)c2cc3sccc3n12`, in [1], the microsomal CLint is 405 µL/min/mg. In addition, the Papp A→B in series [2] was 5.7 ×10⁻⁶ cm/s. In series [4], this compound registered a solubility of 4 µM (≈ 1.47 µg/mL).
For the compound `CCc1nn(CC(=O)NC2CCCNC2)c(=O)c2cc3sccc3n12` (stereo unspecified), the microsomal CLint was less than 10 µL/min/mg in series [1], 50 µL/min/mg in series [5] and 40 µL/min/mg in series [13]. This compound had a logD in series [6] of -0.2. In addition, in [2], the Papp A→B amounted to 0.7 ×10⁻⁶ cm/s. This compound also returned a solubility in [4] greater than 1000 µM.
As to `CCc1nn(CC(=O)Nc2ccncn2)c(=O)c2cc3sccc3n12`, in [1], the microsomal CLint stood at 69 µL/min/mg. In series [2], the Papp A→B was found to be 21 ×10⁻⁶ cm/s. Besides, the solubility in series [4] was 7 µM (≈ 2.48 µg/mL).
For the compound `CC(C)(O)c1nn(CC(=O)N[C@H]2C[C@@](C)(O)C2)c(=O)c2cc3sc(Cl)cc3n12`, the concentration at 3.25 h in series [11] was determined as 65 nM. Further, the microsomal CLint in series [1] was less than 10 µL/min/mg; in series [5], 33 µL/min/mg. The compound also yielded a logD in series [6] of 2.8. Moreover, in series [12], the inhibition in vivo at 50 mg/kg amounted to 30%. In [4], the solubility was 36 µM (≈ 15.3 µg/mL).
`CCc1nn(CC(=O)NC)c(=O)c2cc3sccc3n12`: the microsomal CLint in series [1] worked out at 54 µL/min/mg. Further, the Papp A→B in [2] was 26 ×10⁻⁶ cm/s. The solubility in series [4] worked out at 128 µM (≈ 37.2 µg/mL).
For `O=C(Cn1ncn2c(cc3sccc32)c1=O)Nc1cccnc1`, the values for the microsomal CLint in series [1] and in [5] were less than 10 µL/min/mg and 48 µL/min/mg, respectively. This compound gave a log distribution coefficient (logD) in series [6] of 1.9. In [4], the solubility is 91 µM (≈ 29.6 µg/mL).
